Among the data in PubChem BioAssay AID248 (DTP/NCI, 2004) are T/C values, retold here.

The subject of this experiment is L1210 leukemia ip in BDF1 mice, survival T/C. Put plainly: NCI In Vivo Anticancer Drug Screen. Data for tumor model L1210 Leukemia (intraperitoneal) in B6D2F1 (BDF1) mice. The note with it: endpoint: mean survival time, higher = longer survival. The method, boiled down:
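Antitumor effect is assessed in tumor-bearing animals. Survival in the compound arm is compared with a vehicle-dosed control arm and expressed as their quotient.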

The mark [1] stands for this setting: dose: 25.0 mg/kg/injection, schedule: Q01DX009 (ip), vehicle: Klucel (hydroxypropylcellulose) (HPC).
[2] abbreviates: dose: 12.5 mg/kg/injection, schedule: Q01DX009 (ip), vehicle: saline.
The mark [3] stands for this setting: dose: 12.5 mg/kg/injection, schedule: Q04DX002 (ip), vehicle: saline.
[4] abbreviates: dose: 25.0 mg/kg/injection, schedule: Q01DX009 (ip), vehicle: saline.
Setting [5] is: dose: 25.0 mg/kg/injection, schedule: Q04DX002 (ip), vehicle: saline.
Setting [6] is: dose: 100.0 mg/kg/injection, schedule: Q01DX001 (ip), vehicle: saline.
Setting [7] is: dose: 200.0 mg/kg/injection, schedule: Q01DX001 (ip), vehicle: saline.
[8] abbreviates: dose: 100.0 mg/kg/injection, schedule: Q04DX002 (ip), vehicle: saline with Tween-80.
Where [9] appears, read: dose: 200.0 mg/kg/injection, schedule: Q04DX002 (ip), vehicle: saline with Tween-80.
Where [10] appears, read: dose: 400.0 mg/kg/injection, schedule: Q04DX002 (ip), vehicle: saline with Tween-80.
The mark [11] stands for this setting: dose: 100.0 mg/kg/injection, schedule: Q04DX002 (ip), vehicle: Klucel (hydroxypropylcellulose) (HPC).
The mark [12] stands for this setting: dose: 200.0 mg/kg/injection, schedule: Q04DX002 (ip), vehicle: Klucel (hydroxypropylcellulose) (HPC).
Setting [13] is: dose: 400.0 mg/kg/injection, schedule: Q04DX002 (ip), vehicle: Klucel (hydroxypropylcellulose) (HPC).
Setting [14] is: dose: 400.0 mg/kg/injection, schedule: Q01DX001 (ip), vehicle: saline.

Values joined by “and” are separate entries in the source; they are usually repeats but may differ in a detail not shown here. Identical values can stand only once. Toxic doses and inconclusive results are not listed.

As for `CCCCN(CCCC)CCCOc1cc(C)ccc1C(C)C`, the T/C is 97 % of control (dose: 3.0 mg/kg/injection, schedule: Q04DX003 (ip), vehicle: saline); 105 % of control and 106 % of control (dose: 6.0 mg/kg/injection, schedule: Q04DX003 (ip), vehicle: saline); 102 % of control (dose: 12.0 mg/kg/injection, schedule: Q01DX009 (ip), vehicle: Klucel (hydroxypropylcellulose) (HPC)); 95 % of control and 107 % of control (dose: 12.0 mg/kg/injection, schedule: Q04DX003 (ip), vehicle: saline); 93 % of control under setting [1]; 97 % of control and 98 % of control and 105 % of control (dose: 25.0 mg/kg/injection, schedule: Q04DX003 (ip), vehicle: saline). Besides, the T/C by setting is: (dose: 50.0 mg/kg/injection, schedule: Q01DX009 (ip), vehicle: Klucel (hydroxypropylcellulose) (HPC)) 109 % of control; (dose: 100.0 mg/kg/injection, schedule: Q04DX003 (ip), vehicle: saline) 109 % of control.

Take `O=NN(CCF)C(=O)NC1C2CC3CC(C2)CC1C3` (configuration not stated): the T/C is, setting by setting: (dose: 12.5 mg/kg/injection, schedule: Q01DX001 (ip), vehicle: other) 114 % of control; (dose: 25.0 mg/kg/injection, schedule: Q01DX001 (ip), vehicle: other) 123 % of control; (dose: 50.0 mg/kg/injection, schedule: Q01DX001 (ip), vehicle: other) 167 % of control.

In the case of `CSC(N)=NC1CCCCC1`, the T/C by setting is: (dose: 6.25 mg/kg/injection, schedule: Q01DX009 (ip), vehicle: saline) 103 % of control; under setting [2], 107 % of control; under setting [3], 109 % of control; under setting [4], 100 % of control; under setting [5], 105 % of control.

With `CC1CCCCN1CC(Cl)(Cl)Cl` (configuration not stated), the T/C under setting [6] is 89 % of control and the T/C under setting [7] was 94 % of control.

For `Cc1cc(C)nc(NCCCC(N)C(=O)O)n1` (configuration not stated), the T/C runs as follows: under setting [8], 100 % of control; under setting [9], 95 % of control; under setting [10], 92 % of control.

As to `Nc1ccc2c(c1)S(=O)(=O)c1cc(N)c(S(=O)(=O)O)cc1-2`, the T/C is 115 % of control under setting [11], 94 % of control under setting [12] and 97 % of control under setting [13].

As for `O=C/C(Br)=C(/Br)C(=O)O`, the T/C is 100 % of control (dose: 6.25 mg/kg/injection, schedule: Q04DX002 (ip), vehicle: saline); 100 % of control under setting [3]; 114 % of control (dose: 25.0 mg/kg/injection, schedule: Q04DX002 (ip), vehicle: saline + alcohol); 111 % of control under setting [5].

`CCCNS(=O)(=O)c1ccc(C(=S)OCC)cc1`: the T/C is 98 % of control (dose: 100.0 mg/kg/injection, schedule: Q01DX001 (ip), vehicle: Klucel (hydroxypropylcellulose) (HPC)); 98 % of control (dose: 200.0 mg/kg/injection, schedule: Q01DX001 (ip), vehicle: Klucel (hydroxypropylcellulose) (HPC)); 94 % of control (dose: 400.0 mg/kg/injection, schedule: Q01DX001 (ip), vehicle: Klucel (hydroxypropylcellulose) (HPC)).

On to `C=C(Br)CN=C=S`, for which the T/C under setting [2] was 96 % of control; the T/C under setting [4] was 104 % of control; the T/C (dose: 50.0 mg/kg/injection, schedule: Q01DX009 (ip), vehicle: saline) is 102 % of control.

With `CCCCNC(=O)COc1c(C)cccc1Cl`, the T/C was 101 % of control (dose: 25.0 mg/kg/injection, schedule: Q04DX002 (ip), vehicle: saline with Tween-80); 96 % of control (dose: 50.0 mg/kg/injection, schedule: Q04DX002 (ip), vehicle: saline with Tween-80); 96 % of control under setting [8].

For `CCCCCCCCCCCCCCOc1ccc(S(=O)(=O)/N=C(\N)NC(N)=NCCCCCCCCCC)cc1`, the T/C is 89 % of control under setting [11], 101 % of control under setting [12] and 89 % of control under setting [13].

In the case of `CCCCCCCCCCCCc1ccccc1`, the T/C (dose: 50.0 mg/kg/injection, schedule: Q01DX001 (ip), vehicle: saline) was 91 % of control; the T/C under setting [6] was 97 % of control; the T/C under setting [7] was 97 % of control; the T/C under setting [14] was 101 % of control.

With `O=C(O)/C(=C\c1[nH]c(=O)[nH]c(=O)c1Br)NC(=O)c1ccccc1`, the T/C by setting is: (dose: 100.0 mg/kg/injection, schedule: Q04DX003 (ip), vehicle: saline with Tween-80) 104 % of control; (dose: 200.0 mg/kg/injection, schedule: Q04DX003 (ip), vehicle: saline with Tween-80) 103 % of control; (dose: 400.0 mg/kg/injection, schedule: Q04DX003 (ip), vehicle: saline with Tween-80) 101 % of control.

Take `O=Cc1ccc([N+](=O)[O-])o1`: the T/C reads like this: (dose: 10.0 mg/kg/injection, schedule: Q01DX001 (ip), vehicle: saline) 94 % of control; (dose: 12.5 mg/kg/injection, schedule: Q04DX002 (ip), vehicle: other) 102 % of control; (dose: 20.0 mg/kg/injection, schedule: Q01DX001 (ip), vehicle: saline) 100 % of control; (dose: 25.0 mg/kg/injection, schedule: Q04DX002 (ip), vehicle: other) 97 % of control; (dose: 40.0 mg/kg/injection, schedule: Q01DX001 (ip), vehicle: saline) 94 % of control.

As to `CN(C)Cc1ccccc1C(O)(c1ccccc1)c1ccccc1CN(C)C`, the T/C reads like this: (dose: 8.0 mg/kg/injection, schedule: Q01DX015 (ip), vehicle: carboxymethylcellulose (CMC)) 91 % of control; (dose: 16.0 mg/kg/injection, schedule: Q01DX015 (ip), vehicle: carboxymethylcellulose (CMC)) 90 % of control; (dose: 32.0 mg/kg/injection, schedule: Q01DX015 (ip), vehicle: carboxymethylcellulose (CMC)) 88 % of control.

With `O=C(O)C(Cl)C(C(=O)O)c1ccccc1` (configuration not stated), the T/C by setting is: under setting [8], 101 % of control; under setting [9], 93 % of control; under setting [10], 93 % of control.

As for `NC(CSS(=O)(=O)O)=NCCSc1ccc(Cl)cc1`, the T/C runs as follows: (dose: 6.25 mg/kg/injection, schedule: Q01DX009 (ip), vehicle: Klucel (hydroxypropylcellulose) (HPC)) 95 % of control; (dose: 12.5 mg/kg/injection, schedule: Q01DX009 (ip), vehicle: Klucel (hydroxypropylcellulose) (HPC)) 104 % of control; (dose: 12.5 mg/kg/injection, schedule: Q04DX002 (ip), vehicle: Klucel (hydroxypropylcellulose) (HPC)) 100 % of control; under setting [1], 107 % of control; (dose: 25.0 mg/kg/injection, schedule: Q04DX002 (ip), vehicle: Klucel (hydroxypropylcellulose) (HPC)) 100 % of control.

Turning to `COc1ccc(NC(=S)NNC(=S)NNc2ccccc2)cc1`, the T/C (dose: 100.0 mg/kg/injection, schedule: Q01DX009 (ip), vehicle: Klucel (hydroxypropylcellulose) (HPC)) was 90 % of control; the T/C (dose: 100.0 mg/kg/injection, schedule: Q04DX003 (ip), vehicle: Klucel (hydroxypropylcellulose) (HPC)) is 93 % of control; the T/C (dose: 200.0 mg/kg/injection, schedule: Q01DX009 (ip), vehicle: Klucel (hydroxypropylcellulose) (HPC)) was 89 % of control; the T/C (dose: 200.0 mg/kg/injection, schedule: Q04DX003 (ip), vehicle: Klucel (hydroxypropylcellulose) (HPC)) is 92 % of control; the T/C (dose: 400.0 mg/kg/injection, schedule: Q04DX003 (ip), vehicle: Klucel (hydroxypropylcellulose) (HPC)) is 86 % of control.

`O=C(CNNc1ccc([N+](=O)[O-])cn1)Nc1ccc(S(=O)(=O)c2ccc(NC(=O)CNNc3ccc([N+](=O)[O-])cn3)cc2)cc1`: the T/C runs as follows: (dose: 10.0 mg/kg/injection, schedule: Q01DX Z (ip), vehicle: methylcellulose (MC)) 91 % of control; (dose: 15.0 mg/kg/injection, schedule: Q01DX Z (ip), vehicle: methylcellulose (MC)) 95 % of control; (dose: 22.5 mg/kg/injection, schedule: Q01DX Z (ip), vehicle: methylcellulose (MC)) 94 % of control.

With `OC1C(SCc2ccccc2)OCC2OC3(CCCCC3)OC21` (configuration not stated), the T/C by setting is: under setting [6], 100 % of control; under setting [7], 102 % of control; under setting [14], 104 % of control.

For `CN1C(=O)C(C)(C)C(=O)C1(C)C`, the T/C is 100 % of control under setting [7] and 117 % of control under setting [14].

For `Cc1cc(C(=O)CBr)c(CN2C(=O)c3ccccc3C2=O)c(=O)n1C`, the T/C (dose: 100.0 mg/kg/injection, schedule: Q01DX001 (ip), vehicle: saline with Tween-80) was 101 % of control.
